We go through 24 compounds from US11072612B2, “NLRP3 modulators” (INNATE TUMOR IMMUNITY, INC., priority 2016, dated 2021).

Common to all, as to assay type: cell-based
The target in test [1] is T1, hNLRP3 (Homo sapiens, UniProt Q96P20).
T1 construct: THP-1 cells were purchased from the American Type Culture Collection; host or cells: THP-1 cells, PMA-differentiated
Briefly: hNLRP3 agonist assay: IL-1β production in PMA-differentiated THP-1 cells (ELISA). The following applies: Table 2, 4 hours, IL-1β by ELISA. A general note: ELISA stands for enzyme-linked immunosorbent assay.

Test [2] addresses T2, TLR7 (Homo sapiens, UniProt Q9NYK1).
T2 sequence (Q9NYK1 27-1049): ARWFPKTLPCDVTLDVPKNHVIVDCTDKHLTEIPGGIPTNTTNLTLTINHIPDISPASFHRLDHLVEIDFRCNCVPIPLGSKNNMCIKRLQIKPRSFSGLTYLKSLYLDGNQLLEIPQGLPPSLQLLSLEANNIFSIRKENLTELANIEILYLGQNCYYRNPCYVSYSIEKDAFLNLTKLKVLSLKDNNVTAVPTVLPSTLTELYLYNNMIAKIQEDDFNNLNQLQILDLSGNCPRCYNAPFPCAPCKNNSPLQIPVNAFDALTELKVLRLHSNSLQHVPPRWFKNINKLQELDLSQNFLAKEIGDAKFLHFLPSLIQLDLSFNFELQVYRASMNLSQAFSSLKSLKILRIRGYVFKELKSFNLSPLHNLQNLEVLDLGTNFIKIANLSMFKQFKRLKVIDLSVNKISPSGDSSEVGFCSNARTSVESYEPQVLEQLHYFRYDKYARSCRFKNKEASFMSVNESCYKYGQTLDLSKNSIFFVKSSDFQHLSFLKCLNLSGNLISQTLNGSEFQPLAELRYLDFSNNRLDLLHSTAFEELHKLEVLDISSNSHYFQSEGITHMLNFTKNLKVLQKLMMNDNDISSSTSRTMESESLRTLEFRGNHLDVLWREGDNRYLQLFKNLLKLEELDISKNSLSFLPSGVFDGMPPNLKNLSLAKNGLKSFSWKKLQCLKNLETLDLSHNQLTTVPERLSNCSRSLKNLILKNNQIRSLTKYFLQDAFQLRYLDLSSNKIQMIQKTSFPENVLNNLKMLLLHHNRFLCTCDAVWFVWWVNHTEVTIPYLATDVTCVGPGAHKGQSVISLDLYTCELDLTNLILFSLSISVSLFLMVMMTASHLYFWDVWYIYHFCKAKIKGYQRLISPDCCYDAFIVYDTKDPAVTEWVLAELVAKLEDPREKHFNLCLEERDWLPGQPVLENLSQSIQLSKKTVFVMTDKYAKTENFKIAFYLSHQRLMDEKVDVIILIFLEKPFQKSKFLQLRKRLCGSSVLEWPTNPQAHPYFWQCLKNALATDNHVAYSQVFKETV
Briefly: TLR7 EC50 assay. The following applies: Table 2.

Test [3] addresses T3, TLR8 (Homo sapiens, UniProt Q9NR97).
T3 sequence (Q9NR97 27-1041): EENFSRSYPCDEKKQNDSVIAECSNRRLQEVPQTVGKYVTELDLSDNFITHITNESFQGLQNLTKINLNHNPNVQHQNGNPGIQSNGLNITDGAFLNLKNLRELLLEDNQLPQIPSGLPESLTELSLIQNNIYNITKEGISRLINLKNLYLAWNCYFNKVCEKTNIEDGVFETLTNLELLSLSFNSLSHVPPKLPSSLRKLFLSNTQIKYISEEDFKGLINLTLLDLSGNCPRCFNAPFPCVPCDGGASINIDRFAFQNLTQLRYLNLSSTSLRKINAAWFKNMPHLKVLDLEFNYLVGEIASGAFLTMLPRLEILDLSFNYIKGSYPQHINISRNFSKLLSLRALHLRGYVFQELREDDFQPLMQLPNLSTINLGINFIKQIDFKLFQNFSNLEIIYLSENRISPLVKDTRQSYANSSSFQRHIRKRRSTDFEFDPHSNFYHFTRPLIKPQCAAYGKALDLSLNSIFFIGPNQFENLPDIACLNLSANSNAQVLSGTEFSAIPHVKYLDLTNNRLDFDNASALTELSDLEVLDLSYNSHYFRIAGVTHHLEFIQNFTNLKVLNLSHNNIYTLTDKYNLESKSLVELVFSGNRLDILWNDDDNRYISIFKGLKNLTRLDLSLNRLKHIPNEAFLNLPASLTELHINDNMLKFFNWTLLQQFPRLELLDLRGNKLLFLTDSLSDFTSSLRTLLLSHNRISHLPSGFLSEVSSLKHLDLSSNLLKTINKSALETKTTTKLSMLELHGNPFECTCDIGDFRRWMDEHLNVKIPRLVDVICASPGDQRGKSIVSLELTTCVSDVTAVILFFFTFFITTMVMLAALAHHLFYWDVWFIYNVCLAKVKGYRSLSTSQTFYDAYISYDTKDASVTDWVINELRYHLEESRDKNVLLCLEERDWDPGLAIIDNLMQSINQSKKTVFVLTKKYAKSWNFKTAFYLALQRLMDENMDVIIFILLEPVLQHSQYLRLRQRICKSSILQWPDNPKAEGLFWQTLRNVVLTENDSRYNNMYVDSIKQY
The experiment in a line: TLR8 EC50 assay. The note with it: Table 2.

T1 sequence (Q96P20 whole entry): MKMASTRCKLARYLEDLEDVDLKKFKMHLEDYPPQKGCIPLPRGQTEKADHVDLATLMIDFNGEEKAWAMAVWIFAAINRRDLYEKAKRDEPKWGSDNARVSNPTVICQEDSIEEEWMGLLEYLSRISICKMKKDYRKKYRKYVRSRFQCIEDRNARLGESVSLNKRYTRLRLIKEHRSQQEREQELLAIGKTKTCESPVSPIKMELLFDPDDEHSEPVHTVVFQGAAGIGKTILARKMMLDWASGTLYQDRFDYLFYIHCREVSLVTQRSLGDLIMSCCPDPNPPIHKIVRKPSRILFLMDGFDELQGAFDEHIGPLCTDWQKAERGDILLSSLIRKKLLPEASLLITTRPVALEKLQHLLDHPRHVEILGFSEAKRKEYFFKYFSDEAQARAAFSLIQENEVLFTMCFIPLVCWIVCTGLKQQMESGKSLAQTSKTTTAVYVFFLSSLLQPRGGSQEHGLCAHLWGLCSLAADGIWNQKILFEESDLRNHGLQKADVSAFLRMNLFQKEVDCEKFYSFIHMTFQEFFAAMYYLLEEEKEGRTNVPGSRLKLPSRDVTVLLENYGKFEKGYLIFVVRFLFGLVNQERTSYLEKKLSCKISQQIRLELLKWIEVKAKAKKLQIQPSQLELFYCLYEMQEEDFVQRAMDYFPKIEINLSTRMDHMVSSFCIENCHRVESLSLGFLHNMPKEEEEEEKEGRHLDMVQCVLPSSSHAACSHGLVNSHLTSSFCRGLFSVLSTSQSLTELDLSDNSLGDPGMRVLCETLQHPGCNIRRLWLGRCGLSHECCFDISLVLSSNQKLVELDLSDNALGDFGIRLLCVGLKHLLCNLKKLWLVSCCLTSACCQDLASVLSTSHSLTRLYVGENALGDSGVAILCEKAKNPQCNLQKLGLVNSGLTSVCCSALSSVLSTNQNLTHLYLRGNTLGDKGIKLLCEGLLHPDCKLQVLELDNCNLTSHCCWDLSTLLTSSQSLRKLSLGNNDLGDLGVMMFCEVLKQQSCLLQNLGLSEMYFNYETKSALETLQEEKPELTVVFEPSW

On to `Nc1nc2cc(N3CCCCC3)ccc2c2[nH]c(CCCO)nc12` [Compound 167, 3-(4-amino-7-piperidin-1-yl-1H-imidazo[4,5-c]quinolin-2-yl)propan-1-ol], for which the EC50 in test [1], in test [2] and in test [3] was above 100 µM each time.
`Cc1ccc(-c2ccc3c(c2)nc(N)c2nc(CCCO)[nH]c23)cn1` [Compound 172, 3-[4-amino-7-(6-methylpyridin-3-yl)-1H-imidazo[4,5-c]quinolin-2-yl]propan-1-ol]: the EC50 in test [1], in test [2] and in test [3] was above 100 µM each time.
In the case of `N#Cc1cccc(-c2ccc3c(c2)nc(N)c2nc(CCCO)[nH]c23)c1` [Compound 207, 3-[4-amino-2-(3-hydroxypropyl)-1H-imidazo[4,5-c]quinolin-7-yl]benzonitrile], the EC50 in test [1], in test [2] and in test [3] was above 100 µM throughout.
`Nc1nc2cc(-c3ccsc3)ccc2c2[nH]c(CCCO)nc12` [Compound 186, 3-(4-amino-7-thiophen-3-yl-1H-imidazo[4,5-c]quinolin-2-yl)propan-1-ol]: the figures for the EC50 in test [1], in test [2] and in test [3] were at most 1 µM, above 100 µM and above 100 µM, respectively.
Turning to `Cc1cc(C)n(-c2ccc3c(c2)nc(N)c2nc(CCCO)[nH]c23)n1` [Compound 194, 3-[4-amino-7-(3,5-dimethylpyrazol-1-yl)-1H-imidazo[4,5-c]quinolin-2-yl]propan-1-ol], the EC50 (in general, the concentration needed to bring the measured effect to its halfway point) in test [1] was 20 to 100 µM; in test [2] it was 20 to 100 µM; in test [3] it was above 100 µM.
For `Nc1nc2cc(Br)ccc2c2[nH]c([C@H]3CC[C@H](O)CC3)nc12` [Compound 125], the EC50 in test [1] is 1 to 20 µM; in test [2], above 100 µM; in test [3], above 100 µM.
`CCCc1ccc2c(c1)nc(N)c1nc(CCCO)[nH]c12` [Compound 160, 3-(4-amino-7-propyl-1H-imidazo[4,5-c]quinolin-2-yl)propan-1-ol]: the results for the EC50 in test [1], in test [2] and in test [3] were at most 1 µM, 20 to 100 µM and above 100 µM, respectively.
For the compound `CCN(C(=O)OC(C)(C)C)C(C)c1nc2c(N)nc3cc(-c4cc[nH]n4)ccc3c2n1Cc1ccc(OC)cc1` (stereo not drawn) [Compound 242], the EC50 in test [1] is 1 to 20 µM; in test [2], above 100 µM; in test [3], above 100 µM.
For the compound `CN(C)c1ncc(-c2ccc3c(c2)nc(N)c2nc(CCCO)[nH]c23)cn1` [Compound 156, 3-[4-amino-7-[2-(dimethylamino)pyrimidin-5-yl]-1H-imidazo[4,5-c]quinolin-2-yl]propan-1-ol], the EC50 in test [1], in test [2] and in test [3] was above 100 µM throughout.
`Cc1cnn(-c2ccc3c(c2)nc(N)c2nc(CCCO)[nH]c23)c1` [Compound 181, 3-[4-amino-7-(4-methylpyrazol-1-yl)-1H-imidazo[4,5-c]quinolin-2-yl]propan-1-ol]: the values for the 50% effective concentration (EC50) in test [1], in test [2] and in test [3] were 1 to 20 µM, above 100 µM and above 100 µM, respectively.
As to `Nc1nc2cc(N3CCCC3)ccc2c2[nH]c(CCCO)nc12` [Compound 166, 3-(4-amino-7-pyrrolidin-1-yl-1H-imidazo[4,5-c]quinolin-2-yl)propan-1-ol], the EC50 in test [1], in test [2] and in test [3] was above 100 µM in each case.
For the compound `Nc1nc2cc(-c3ccc(F)cc3)ccc2c2[nH]c(CCCO)nc12` [Compound 212, 3-[4-amino-7-(4-fluorophenyl)-1H-imidazo[4,5-c]quinolin-2-yl]propan-1-ol], the EC50 in test [1] is above 100 µM; in test [2], above 100 µM; in test [3] it was 20 to 100 µM.
In the case of `Nc1nc2cc(-c3cc[nH]n3)ccc2c2[nH]c(CCCO)nc12` [Compound 189, 3-[4-amino-7-(1H-pyrazol-3-yl)-1H-imidazo[4,5-c]quinolin-2-yl]propan-1-ol], the EC50 in test [1] was at most 1 µM; in test [2], above 100 µM; in test [3], above 100 µM.
Take `Nc1nc2cc(Cl)ccc2c2[nH]c(CCCO)nc12` [Compound 165, 3-(4-amino-7-chloro-1H-imidazo[4,5-c]quinolin-2-yl)propan-1-ol]: the EC50 in test [1], in test [2] and in test [3] was 20 to 100 µM throughout.
For the compound `CC(C(=O)O)c1ccc2c(c1)nc(N)c1nc(CCCO)[nH]c12` (stereo not drawn) [Compound 117], the EC50 in test [1] is 1 to 20 µM; in test [2], above 100 µM; in test [3], above 100 µM.
`CCNC(C)(C)c1nc2c(N)nc3cc(-c4cc[nH]n4)ccc3c2[nH]1` [Compound 251]: the EC50 in test [1] was 1 to 20 µM; in test [2], above 100 µM; in test [3], above 100 µM.
For the compound `Nc1nc2cc(-c3ccccn3)ccc2c2[nH]c(CCCO)nc12` [Compound 185, 3-(4-amino-7-pyridin-2-yl-1H-imidazo[4,5-c]quinolin-2-yl)propan-1-ol], the EC50 is at most 1 µM in test [1], above 100 µM in test [2] and above 100 µM in test [3].
Take `Nc1nc2cc(-c3ccc(O)nc3)ccc2c2[nH]c(CCCO)nc12` [Compound 176, 5-[4-amino-2-(3-hydroxypropyl)-1H-imidazo[4,5-c]quinolin-7-yl]pyridin-2-ol]: the EC50 in test [1], in test [2] and in test [3] was above 100 µM throughout.
`Nc1nc2cc(Br)ccc2c2[nH]c(C3CCN(S(=O)(=O)c4ccccc4)CC3)nc12` [Compound 220]: the values for the EC50 in test [1], in test [2] and in test [3] were 1 to 20 µM, above 100 µM and above 100 µM, respectively.
For the compound `Nc1nc2cc(-c3ccc[nH]c3=O)ccc2c2[nH]c(CCCOCc3ccccc3)nc12` [Compound 249], the EC50 in test [1] was 1 to 20 µM; in test [2], above 100 µM; in test [3] it was above 100 µM.
With `Nc1nc2cc(-c3cccnc3)ccc2c2[nH]c(CCCOCc3ccccc3)nc12` [Compound 146, 2-(3-phenylmethoxypropyl)-7-pyridin-3-yl-1H-imidazo[4,5-c]quinolin-4-amine], the EC50 in test [1] was 20 to 100 µM; in test [2] it was above 100 µM; in test [3] it was above 100 µM.
For the compound `Nc1nc2cc(-c3ccccc3)ccc2c2[nH]c(C3CCNCC3)nc12` [Compound 222], the EC50 was 1 to 20 µM in test [1], above 100 µM in test [2] and above 100 µM in test [3].
On to `Nc1nc2cc(-c3nccs3)ccc2c2[nH]c(CCCO)nc12` [Compound 184, 3-[4-amino-7-(1,3-thiazol-2-yl)-1H-imidazo[4,5-c]quinolin-2-yl]propan-1-ol], for which the EC50 in test [1], in test [2] and in test [3] was above 100 µM in each case.
As to `Nc1nc2ccccc2c2[nH]c([C@H]3CC[C@H](O)CC3)nc12` [Compound 135], the results for the EC50 in test [1], in test [2] and in test [3] were 20 to 100 µM, above 100 µM and above 100 µM, respectively.
